Several values for one entry are separate records, joined by “and”; a condition that tells them apart may be missing. Equal values may be shown once. Where a name gives a salt, the structure may show the parent alone.
Target: CNDP2 (Homo sapiens (Human), UniProt Q96KP4)
Assay: CNDP2 enzyme inhibition assay (Met-His hydrolysis, free histidine by o-phthaldialdehyde fluorescence), dose-response
Assay type: biochemical
Details: 50 nM purified CNDP2 (Sino Biological), 1 mM Met-His substrate, 30 minutes at 37° C.; TABLE 2
Procedure: To identify optimal conditions for identifying novel inhibitors of CNDP2, enzyme assays were performed with varied sources of purified enzyme, concentrations of enzyme, peptide substrates, concentrations of peptide substrates and metal cofactors. […] The reaction mixture was incubated for 30 minutes at 37° C. before it was quenched with an equal volume of 1% TCA. Free histidine was quantified after derivatization with a fluorophore (o-phthaldialdehyde from Sigma-Aldrich, excitation 340 nm, emission 460 nm). The reaction was conducted in an automation-friendly format to meet future screening throughput demands. A histidine titration standard curve was also included to enable conversion of fluorescence signal to molar concentration of histidine released by the hydrolysis reaction and to ensure the linearity of the fluorescence signal vs. free histidine.
Compounds of Formula (I) disclosed herein were screened for potency in inhibiting CNDP2 enzyme activity in a dose-response experiment. Bestatin was included with each batch of test molecules as a benchmark for assay quality control.

Sequence of CNDP2 (Q96KP4 whole entry): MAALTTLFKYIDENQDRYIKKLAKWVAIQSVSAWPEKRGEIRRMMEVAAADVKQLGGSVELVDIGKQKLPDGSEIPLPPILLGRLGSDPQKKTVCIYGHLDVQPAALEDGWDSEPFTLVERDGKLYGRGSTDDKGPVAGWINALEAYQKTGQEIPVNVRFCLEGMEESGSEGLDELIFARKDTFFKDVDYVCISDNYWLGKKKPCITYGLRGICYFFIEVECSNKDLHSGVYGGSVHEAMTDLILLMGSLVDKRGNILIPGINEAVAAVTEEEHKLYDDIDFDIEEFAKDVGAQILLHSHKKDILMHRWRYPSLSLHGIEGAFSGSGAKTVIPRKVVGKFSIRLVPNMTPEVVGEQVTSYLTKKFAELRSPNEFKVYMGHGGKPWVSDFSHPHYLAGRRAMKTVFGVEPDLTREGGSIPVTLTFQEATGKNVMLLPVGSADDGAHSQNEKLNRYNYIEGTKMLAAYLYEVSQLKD

Compared with `N[C@H](Cc1ccccc1)[C@H](O)C(=O)N[C@H](C(=O)O)c1ccc(F)c(OC(F)(F)F)c1` [Compound 105, (S)-2-((2S,3R)-3-amino-2-hydroxy-4-phenylbutanamido)-2-(4-fluoro-3-(trifluoromethoxy)phenyl)acetic acid], `N[C@H](Cc1ccccc1)[C@H](O)C(=O)N[C@@H](C(=O)O)c1ccc(Cl)c(OC(F)(F)F)c1` [Compound 106, (R)-2-((2S,3R)-3-amino-2-hydroxy-4-phenylbutanamido)-2-(4-chloro-3-(trifluoromethoxy)phenyl)acetic acid hydrochloride] is higher in IC50: < 100 nM for the first, ≥ 1000 nM for the second. The first is the more potent here.

First: N[C@H](Cc1ccccc1)[C@H](O)C(=O)N[C@H](C(=O)O)c1ccc(Cl)c(OC(F)(F)F)c1 [Compound 107, (S)-2-((2S,3R)-3-amino-2-hydroxy-4-phenylbutanamido)-2-(4-chloro-3-(trifluoromethoxy)phenyl)acetic acid hydrochloride]
Second: N[C@H](Cc1ccccc1)[C@H](O)C(=O)N[C@@H](C(=O)O)c1ccc(Br)c(OC(F)(F)F)c1 [Compound 110, (R)-2-((2S,3R)-3-amino-2-hydroxy-4-phenylbutanamido)-2-(4-bromo-3-(trifluoromethoxy)phenyl)acetic acid hydrochloride]
The IC50 of the first is lower: < 100 nM for the first, ≥ 1000 nM for the second. The first is the more potent here.

First: N[C@H](Cc1ccccc1)[C@H](O)C(=O)N[C@@H](C(=O)O)c1cc(Cl)cc(OC(F)(F)F)c1 [Compound 108, (R)-2-((2S,3R)-3-amino-2-hydroxy-4-phenylbutanamido)-2-(3-chloro-5-(trifluoromethoxy)phenyl)acetic acid hydrochloride]
Second: N[C@H](Cc1ccccc1)[C@H](O)C(=O)N[C@H](C(=O)O)c1cc(Cl)cc(OC(F)(F)F)c1 [Compound 109, (S)-2-((2S,3R)-3-amino-2-hydroxy-4-phenylbutanamido)-2-(3-chloro-5-(trifluoromethoxy)phenyl)acetic acid hydrochloride]
The IC50 of the first is higher: ≥ 1000 nM for the first, < 100 nM for the second. The second is the more potent here.

Compared with `N[C@H](Cc1ccccc1)[C@H](O)C(=O)N[C@H](C(=O)O)c1ccc(Br)c(OC(F)(F)F)c1` [Compound 111, (S)-2-((2S,3R)-3-amino-2-hydroxy-4-phenylbutanamido)-2-(4-bromo-3-(trifluoromethoxy)phenyl)acetic acid hydrochloride], `N[C@H](Cc1ccccc1)[C@H](O)C(=O)N[C@@H](Cc1ccc(OC(F)(F)F)c(F)c1)C(=O)O` [Compound 119, (S)-2-((2S,3R)-3-amino-2-hydroxy-4-phenylbutanamido)-3-(3-fluoro-4-(trifluoromethoxy)phenyl)propanoic acid] is higher in IC50: < 100 nM for the first, 100 to 1000 nM for the second.

Compared with `N[C@H](Cc1ccccc1)[C@H](O)C(=O)N[C@H](C(=O)O)c1ccc(F)c(OC(F)(F)F)c1F` [Compound 114, (S)-2-((2S,3R)-3-amino-2-hydroxy-4-phenylbutanamido)-2-(2,4-difluoro-3-(trifluoromethoxy)phenyl)acetic acid hydrochloride], `N[C@H](Cc1ccccc1)[C@H](O)C(=O)N[C@@H](Cc1ccc(OC(F)(F)F)cc1)C(=O)O` [Compound 117, (S)-2-((2S,3R)-3-amino-2-hydroxy-4-phenylbutanamido)-3-(4-(trifluoromethoxy)phenyl)propanoic acid] is higher in IC50: < 100 nM for the first, ≥ 1000 nM for the second. The first is the more potent here.

Going from `N[C@H](Cc1ccccc1)[C@H](O)C(=O)N[C@@H](Cc1cccc(OC(F)(F)F)c1)C(=O)O` [Compound 118, (S)-2-((2S,3R)-3-amino-2-hydroxy-4-phenylbutanamido)-3-(3-(trifluoromethoxy)phenyl)propanoic acid] to `N[C@H](Cc1ccc(Cl)cc1)[C@H](O)C(=O)N[C@H](C(=O)O)c1cccc(OC(F)(F)F)c1` [Compound 127, (S)-2-((2S,3R)-3-amino-4-(4-chlorophenyl)-2-hydroxybutanamido)-2-(3-(trifluoromethoxy)phenyl)acetic acid], the IC50 rises from < 100 nM to ≥ 1000 nM.

For `N[C@H](Cc1ccccc1)[C@H](O)C(=O)N[C@H](C(=O)O)c1cccc2c1OC(F)(F)O2` [Compound 115, (S)-2-((2S,3R)-3-amino-2-hydroxy-4-phenylbutanamido)-2-(2,2-difluorobenzo[d][1,3]dioxol-4-yl)acetic acid hydrochloride], the IC50 was ≥ 1000 nM and 100 to 1000 nM.

Reference: patent US20250120927A1, “CNDP2 MODULATORS AND METHODS FOR THEIR USE” (Metabolon Inc., priority 2023, published 2025)
